Laboratory results: patent US20250188030A1, “Biphenyl and Phenylpyridine Compounds” (Pfizer Inc., priority 2023, published 2025)
Read-outs that look alike come from different tables or passages of the source.

What was measured:
H3K9AC (HT1080 cells) = test: H3K9AC Sandwich ELISA Assay in HT1080 cells (KAT2A primary cell-based screening assay); design: species or system Human
Protocol: Human fibrosarcoma cell line HT1080 was obtained from American Type Culture Collection (ATCC), Manassas, VA USA, Cat. HT-1080 (ATCC® CCL-121™). Cells were cultured in MEM (Thermo Fisher Scientific/Gibco Life Technologies Cat. #11-095-080) plus 10% (v/v) FBS (Thermo Fisher Scientific/Gibco Life Technologies Cat. #26140-079) and 1% Penicillin-Streptomycin (Thermo Fisher Scientific/Gibco Life Technologies Cat. #15070063) at 37° C. in 5% CO2.
HT1080 cells were trypsinized, cell viability count performed, and cells suspended in complete media at 100,000 cells/ml. Cells were seeded (100 μl/well) into Greiner Bio-One CELLSTAR 96-well polystyrene flat bottom cell culture microplate (Thermo Fisher Scientific Cat. #07-000-162) at a density of 10,000 cells/well. Cells were incubated for 16 hours at 37° C. at 5% CO2. Compound dilution plates were prepared in 96-well, clear U-bottom, polypropylene plates (Corning 3365) in 100% DMSO at 10 mM stock concentration in duplicate, using 10-point serial dilution (1:3). Compounds were diluted to 1:200 in growth medium and 25 μl from intermediate compound plates were added to each well of the cell plates using a Beckman FX liquid handling system such that the highest compound concentration tested was 10 μM final, with a 0.1% final DMSO concentration in the total volume of 125 μl. Plates were incubated for 24 hours at 37° C. and 5% CO2. Plates were centrifuged at 2500 rpm for 5 minutes and medium was removed. 100 μL 0.4N HCL (Thermo Fisher Scientific Cat #SA56-1) was added to each well and plates were shaken for 60 minutes at 4C to lyse cells. 38ul 0.4N Sodium phosphase dibasic pH12.5 (Thermo Fisher Scientific Cat #S375-212) containing 2 mM Sodium Butyrate (Millipore TR1008G) and 3 mM Phenylmethanesulfonyl-fluoride (Sigma 93482) was added to each well to neutralize lysates.
Cell lysate plates were mixed for 5 minutes at room temperature on shaker and immediately frozen at −80C overnight. Cell lysates were thawed and 50 μL/well was transferred to ELISA plates (Total Histone H3 mouse (Cell Signaling Technology Cat #14269) mAb-coated Corning 1×8 strip-well, white, 96-well plates (Corning 2485)). After 2 hours room temperature incubation, plates were washed six times with PBS/0.05% Tween Wash Buffer using a BioTek plate washer. 50 μL of Histone H3K9AC rabbit detection mAb (Cell Signaling Technology Cat #9649S) diluted 1:1000 in blocking buffer (Thermo Fisher Scientific Cat #37542) was added to each well and incubated for 2 hours at room temperature. After washing, 50 μL anti-rabbit IgG, HRP-Linked antibody (Cell Signaling Technology Cat #7074) diluted 1:1000 in blocking buffer was added to each well and incubated for 60 minutes at room temperature. Following incubation, plates were washed as described above. 50 μL of luminescent GLO substrate reagent (R&D System Cat #DY993) was added to each well and incubated for 10 minutes at room temperature. Plates were read on the PHERAstar plate reader using the 96-well with Luminescent reading mode. IC50 values were calculated using a four-parameter fit with GraphPad Prism version 9.5.1 or in-house modified IDBS ActivityBase data analyzing package.

KAT2A = KAT2A (Homo sapiens (Human), UniProt Q92830); test: KAT2A acetyltransferase biochemical assay (RapidFire mass spectrometry, AcCoA to CoA)
KAT2A, sequence (Q92830 whole entry): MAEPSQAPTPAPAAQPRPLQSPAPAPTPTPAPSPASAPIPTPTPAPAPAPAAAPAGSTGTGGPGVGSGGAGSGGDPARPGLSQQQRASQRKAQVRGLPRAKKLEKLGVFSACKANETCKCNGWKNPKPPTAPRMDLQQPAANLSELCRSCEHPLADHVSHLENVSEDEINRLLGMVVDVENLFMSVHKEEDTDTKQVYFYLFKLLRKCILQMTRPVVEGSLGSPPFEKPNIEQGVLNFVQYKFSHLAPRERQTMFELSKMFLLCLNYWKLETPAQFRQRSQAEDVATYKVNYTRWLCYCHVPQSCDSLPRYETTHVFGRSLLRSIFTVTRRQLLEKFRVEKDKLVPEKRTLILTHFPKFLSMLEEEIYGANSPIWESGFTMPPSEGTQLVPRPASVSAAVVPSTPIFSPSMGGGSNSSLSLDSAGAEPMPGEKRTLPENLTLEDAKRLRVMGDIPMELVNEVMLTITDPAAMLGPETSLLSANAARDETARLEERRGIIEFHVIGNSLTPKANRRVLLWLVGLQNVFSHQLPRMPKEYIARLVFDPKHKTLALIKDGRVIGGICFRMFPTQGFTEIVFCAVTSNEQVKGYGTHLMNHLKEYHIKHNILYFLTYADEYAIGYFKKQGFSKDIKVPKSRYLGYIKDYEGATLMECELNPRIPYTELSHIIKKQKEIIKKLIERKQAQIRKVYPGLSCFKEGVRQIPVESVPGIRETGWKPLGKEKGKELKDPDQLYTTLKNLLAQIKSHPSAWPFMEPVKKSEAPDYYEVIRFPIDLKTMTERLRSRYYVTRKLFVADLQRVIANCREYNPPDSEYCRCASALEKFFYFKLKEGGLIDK

[1] = Homo sapiens, HT-1080, H3K9AC sandwich ELISA
[2] = read-out: KAT2A Ki at 1 μM AcCoA, 5 μM H3 1-21 peptide, 0.5 nM KAT2A, 90-minute reaction

IC50 (H3K9AC (HT1080 cells); [1]) [nM]	Ki (KAT2A; [2]) [nM]	IC50 (H3K9AC (HT1080 cells); H3K9AC sandwich ELISA) [nM]	Ki (KAT2A; KAT2A Ki at 1 μM AcCoA, 5 μM H3 1-21 peptide, 0.5 nM KAT2A, 90-minute reaction) [nM]	SMILES
942	23.4			CC(C)(C(=O)NS(C)(=O)=O)c1ccc(O[C@@H]2CC[C@@H](NC(=O)[C@@]3(F)CNC4(CCC4)C3)C2)c(-c2cccc(F)c2C2CC2)c1 (single isomer, unassigned) [Example C13]
	0.08	2.4		CCc1c(F)cccc1-c1cc([C@@H](C)C(=O)NS(=O)(=O)C2(C)CC2)ccc1O[C@@H]1CC[C@@H](NC(=O)[C@@]2(F)CNC3(CCC3)C2)C1 (single isomer, unassigned) [Example C83]
5.19			0.15	CN1CC(C)(C)C[C@H]1C(=O)N[C@H]1C[C@H](Oc2ccc(C(C)(C)C(=O)O)cc2-c2cccc(F)c2C2CCC2)C[C@H]1O [Example K1, 2-[2′-cyclobutyl-3′-fluoro-6-({(1S,3R,4S)-3-hydroxy-4-[(1,4,4-trimethyl-L-prolyl)amino]cyclopentyl}oxy)[1,1′-biphenyl]-3-yl]-2-methylpropanoic acid]
28.6	1.21			CN1CC(C)(C)C[C@H]1C(=O)N[C@H]1C[C@H](Oc2ccc(C(=O)O)cc2-c2ccccc2C2CCC2)C[C@H]1O (single isomer, unassigned) [Example K2, 2′-cyclobutyl-6-({(1ξ,3ξ,4ξ)-3-hydroxy-4-[(1,4,4-trimethyl-L-prolyl)amino]cyclopentyl}oxy)[1,1′-biphenyl]-3-carboxylic acid]
	> 99.9	> 1000		CN(C)S(=O)(=O)NC(=O)Cc1cccc(O[C@@H]2CC[C@@H](NC(=O)[C@@]3(F)CNC4(CCC4)C3)C2)c1-c1cccc(F)c1C1CCC1 (atropisomer, axis not shown) [Example I15, (7S)-N-[(1R,3R)-3-({(1ψ)-2′-cyclobutyl-6-[2-(dimethylsulfamamido)-2-oxoethyl]-3′-fluoro[1,1′-biphenyl]-2-yl}oxy)cyclopentyl]-7-fluoro-5-azaspiro[3.4]octane-7-carboxamide]
	0.85	18.2		CCS(=O)(=O)NC(=O)C(C)(C)c1ccc(O[C@@H]2CC[C@@H](NC(=O)[C@@]3(F)CNCC4(CCC4)C3)C2)c(-c2cccc(F)c2C2CCC2)c1 (single isomer, unassigned) [Example B32]
	1.41	53.6		CC(C)(C(=O)O)c1ccc(O[C@@H]2CC[C@@H](NC(=O)[C@@]3(F)CNCC4(CCC4)C3)C2)c(-c2cccc(F)c2C2CCC2)c1 (single isomer, unassigned) [Example A28]
	0.05	6		CC(C)S(=O)(=O)NC(=O)Cc1ccc(O[C@@H]2CC[C@@H](NC(=O)[C@@]3(F)CNCC(C)(C)C3)C2)c(-c2cccc(F)c2C2CCC2)c1 (single isomer, unassigned) [Example C77]
0.9	0.09			CC(C)S(=O)(=O)NC(=O)C(C)(C)c1ccc(O[C@@H]2CC[C@@H](NC(=O)[C@@]3(F)CNC4(CCCC4)C3)C2)c(-c2cccc(F)c2C2CCC2)c1 (single isomer, unassigned) [Example B24]
7.1	13.7			CC(C)S(=O)(=O)NC(=O)c1cccc(O[C@@H]2CC[C@@H](NC(=O)[C@@]3(F)CNC4(CCC4)C3)C2)c1-c1cccc(F)c1C1CCC1 (atropisomer, axis not shown) [Example I19, (7S)-N-[(1R,3R)-3-({(1ψ)-2′-cyclobutyl-3′-fluoro-6-[(propane-2-sulfonyl)carbamoyl][1,1′-biphenyl]-2-yl}oxy)cyclopentyl]-7-fluoro-5-azaspiro[3.4]octane-7-carboxamide]
41.9	24.5			CN1CC(C)(C)C[C@H]1C(=O)N[C@@H]1CC[C@@H](Oc2cccc(C(=O)NS(C)(=O)=O)c2-c2cccc(F)c2C2CCC2)C1 (atropisomer, axis not shown) [Example I1, N-[(1R,3R)-3-({(1Ψ)-2′-cyclobutyl-3′-fluoro-6-[(methanesulfonyl)carbamoyl][1,1′-biphenyl]-2-yl}oxy)cyclopentyl]-1,4,4-trimethyl-L-prolinamide]
	96	> 1000		CC1(C)C[C@@](F)(C(=O)N[C@@H]2CC[C@@H](Oc3ccc(C(=O)O)cc3-c3cccc(F)c3C3CCC3)C2)CN1 (single isomer, unassigned) [Example A13]
	0.05	4.8		CCc1c(F)cccc1-c1cc(CC(=O)NS(=O)(=O)C(C)C)ccc1O[C@@H]1CC[C@@H](NC(=O)[C@@]2(F)CNC3(CCCC3)C2)C1 (single isomer, unassigned) [Example C73]
	> 99.9	> 1000		CCc1c(F)cccc1-c1cc(CC(=O)NS(=O)(=O)C2(C)CC2)ccc1O[C@@H]1CC[C@@H](NC(=O)[C@@]2(F)CNCC(C)(C)C2)C1 (single isomer, unassigned) [Example C56]
67.2	6.76			CN1CC2(CCCC2)C[C@@H]1C(=O)N[C@@H]1CC[C@@H](Oc2ccc(C(=O)O)cc2-c2ccccc2C2CCC2)C1 (single isomer, unassigned) [Example D9]
91.8	6.57			CCc1c(F)cccc1-c1cc(C(C)(C)C(=O)NS(=O)(=O)C2(C)CC2)ccc1O[C@@H]1CC[C@@H](NC(=O)[C@@]2(F)CNC3(CCC3)C2)C1 [Example C23, (7S)-N-[(1R,3R)-3-({2′-ethyl-3′-fluoro-5-[2-methyl-1-(1-methylcyclopropane-1-sulfonamido)-1-oxopropan-2-yl][1,1′-biphenyl]-2-yl}oxy)cyclopentyl]-7-fluoro-5-azaspiro[3.4]octane-7-carboxamide]
	1.13	5.73		CN1CC(C)(C)C[C@H]1C(=O)N[C@H]1C[C@H](Oc2cccc(CC(=O)O)c2-c2cccc(F)c2C2CCC2)C[C@H]1O (atropisomer, axis not shown) [Example K6, [(1ψ)-2′-cyclobutyl-3′-fluoro-6-({(1S,3R,4S)-3-hydroxy-4-[(1,4,4-trimethyl-L-prolyl)amino]cyclopentyl}oxy)[1,1′-biphenyl]-2-yl]acetic acid]
7	0.1			CCS(=O)(=O)NC(=O)Cc1ccc(O[C@@H]2CC[C@@H](NC(=O)[C@@]3(F)CNC4(CCC4)C3)C2)c(-c2ccccc2C(C)C)c1 [Example C53, (7S)-N-[(1R,3R)-3-({5-[2-(ethanesulfonamido)-2-oxoethyl]-2′-(propan-2-yl)[1,1′-biphenyl]-2-yl}oxy)cyclopentyl]-7-fluoro-5-azaspiro[3.4]octane-7-carboxamide]
	> 99.9	> 1000		CC1(C)CNC[C@](F)(C(=O)N[C@@H]2CC[C@@H](Oc3cccc(CC(=O)O)c3-c3cccc(F)c3C3CCC3)C2)C1 (atropisomer, axis not shown) [Example H12, [(1 ψ)-2′-cyclobutyl-3′-fluoro-6-{[(1R,3R)-3-{[(3ξ)-3-fluoro-5,5-dimethylpiperidine-3-carbonyl]amino}cyclopentyl]oxy}[1,1′-biphenyl]-2-yl]acetic acid]
	> 99.9	> 1000		CC(C)S(=O)(=O)NC(=O)Cc1cccc(O[C@@H]2CC[C@@H](NC(=O)[C@@]3(F)CNC4(CCC4)C3)C2)c1-c1cccc(F)c1C1CCC1 (atropisomer, axis not shown) [Example I18, (7S)-N-[(1R,3R)-3-({(1ψ)-2′-cyclobutyl-3′-fluoro-6-[2-oxo-2-(propane-2-sulfonamido)ethyl][1,1′-biphenyl]-2-yl}oxy)cyclopentyl]-7-fluoro-5-azaspiro[3.4]octane-7-carboxamide]
